The target of experiment [1] is T1, human A2a adenosine receptor (Homo sapiens, UniProt P29274).
T1 construct: purchased Perkin Elmer RBHA2aM400UA; host or cells: HEK293 or CHO cells (recombinant expression)
Nature of the experiment: A2a binding affinity using radioligand binding, Method (A). The conditions noted are these: Method (A): [3H]SCH58261 filtration binding, membranes expressing human A2a. The essentials:
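Filtration binding used human A2a membranes from HEK293 or CHO cells, preincubated with compound 15–30 min. [3H]SCH58261 (diluted to 4 nM) was then added in Tris pH 7.4, MgCl2, Tween20 buffer, with 60 min at room temperature. Non-specific binding was defined by 1 μM ZM241385, and IC50 came from a 4-parameter logistic fit.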

Experiment [2] deals with T2, human A2b adenosine receptor (Homo sapiens, UniProt P29275).
T2 construct: purchased Perkin Elmer ES-013-C; host or cells: HEK293 cells recombinantly expressing the receptor; membranes made from them
T2 sequence (P29275 1-332): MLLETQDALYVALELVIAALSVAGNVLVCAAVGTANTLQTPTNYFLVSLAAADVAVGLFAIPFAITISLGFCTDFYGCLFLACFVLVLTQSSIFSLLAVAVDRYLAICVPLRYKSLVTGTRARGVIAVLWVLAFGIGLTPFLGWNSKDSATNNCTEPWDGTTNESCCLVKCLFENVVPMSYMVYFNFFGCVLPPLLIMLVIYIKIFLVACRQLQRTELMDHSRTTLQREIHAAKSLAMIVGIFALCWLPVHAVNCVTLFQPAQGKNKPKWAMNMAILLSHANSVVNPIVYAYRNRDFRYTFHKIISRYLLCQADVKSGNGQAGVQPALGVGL
As to the kind of experiment: A2b binding affinity, radioligand filtration binding assay. Particulars: tritiated proprietary A2b antagonist, HEK293 membranes expressing human A2b. The essentials: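 Membranes from HEK293 cells expressing human A2b were preincubated with compound 15–30 min at room temperature, then incubated 60 min at room temperature with a tritiated proprietary A2b antagonist in PBS pH 7.4 without Mg/Ca. Non-specific binding defined with 20 μM NECA; filter-bound radioactivity counted and IC50 fitted by 4-parameter logistic.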

One may read the IC50 as the midpoint of a concentration-inhibition curve. Low values mean greater potency in that assay, high ones weaker potency in that assay.

T1 sequence (P29274 whole entry): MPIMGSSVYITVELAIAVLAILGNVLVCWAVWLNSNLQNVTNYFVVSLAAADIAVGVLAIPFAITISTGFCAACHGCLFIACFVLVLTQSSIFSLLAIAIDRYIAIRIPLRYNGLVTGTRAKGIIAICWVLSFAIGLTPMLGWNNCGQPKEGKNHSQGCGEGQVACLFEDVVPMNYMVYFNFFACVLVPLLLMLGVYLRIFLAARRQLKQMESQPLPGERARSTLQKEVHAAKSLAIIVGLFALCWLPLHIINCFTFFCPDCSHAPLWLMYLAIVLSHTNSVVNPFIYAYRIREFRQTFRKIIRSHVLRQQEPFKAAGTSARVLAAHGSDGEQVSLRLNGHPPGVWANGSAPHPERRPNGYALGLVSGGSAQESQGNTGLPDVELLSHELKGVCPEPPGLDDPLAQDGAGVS

As to `Cc1c(-c2ncco2)nc(N)n2nc([C@@H]3CCCN(c4cnn(CC(C)(C)O)c4C)C3)nc12` [Example 3.10, (R)-1-(4-(3-(5-amino-8-methyl-7-(oxazol-2-yl)-[1,2,4]triazolo[1,5-c]pyrimidin-2-yl)piperidin-1-yl)-5-methyl-1H-pyrazol-1-yl)-2-methylpropan-2-ol], the IC50 in experiment [1] turned out to be 2.1 nM; in experiment [2], 535 nM.

As to `Cc1c(-c2ncco2)nc(N)c2nc([C@H]3CCCN(c4cnn(C)c4)C3)nn12` (single isomer, unassigned) [Example 2.5-2], the IC50 amounted to 37.3 nM in experiment [1] and 7390 nM in experiment [2].

`Cc1c(-c2ncco2)nc(N)c2nc(C3CCC(C)(O)C3)nn12` (single isomer, unassigned) [Example 8.7, (1R,3S and 1S,3R) or (1R,3R and 1S,3S)-3-(8-amino-5-methyl-6-(oxazol-2-yl)-[1,2,4]triazolo[1,5-a]pyrazin-2-yl)-1-methylcyclopentan-1-ol]: the IC50 turned out to be 143 nM in experiment [1] and 2590 nM in experiment [2].

As for `Cc1c(-c2ncco2)nc(N)n2nc([C@@H]3CC[C@H](C)N(c4cnn(CC(C)(C)O)c4)C3)nc12` [Example 2.12, 1-(4-((2S,5R)-5-(5-amino-8-methyl-7-(oxazol-2-yl)-[1,2,4]triazolo[1,5-c]pyrimidin-2-yl)-2-methylpiperidin-1-yl)-1H-pyrazol-1-yl)-2-methylpropan-2-ol], the results for the half-inhibitory concentration (IC50) in experiment [1] and in experiment [2] were 1 nM and 19.8 nM, respectively.

Turning to `Cc1c(-c2ncco2)nc(N)n2nc(C3CCN(c4cnn(CC(C)(C)O)c4)C3)nc12` (single isomer, unassigned) [Example 3.15-1, (R or S)-1-(4-(3-(5-amino-8-methyl-7-(oxazol-2-yl)-[1,2,4]triazolo[1,5-c]pyrimidin-2-yl)pyrrolidin-1-yl)-1H-pyrazol-1-yl)-2-methylpropan-2-ol], the IC50 came out at 42.6 nM in experiment [1] and 386 nM in experiment [2].

As to `Cc1c(-c2ncco2)nc(N)n2nc([C@@H]3CCCN(c4cnn(C(C)C(C)(C)O)c4)C3)nc12` (single isomer, unassigned) [Example 2.11, (S or R)-3-(4-((R)-3-(5-amino-8-methyl-7-(oxazol-2-yl)-[1,2,4]triazolo[1,5-c]pyrimidin-2-yl)piperidin-1-yl)-1H-pyrazol-1-yl)-2-methylbutan-2-ol], the figures for the IC50 in experiment [1] and in experiment [2] were 3.2 nM and 81.6 nM, respectively.

For the compound `CCn1cc(N2C[C@H](c3nc4c(C)c(-c5cccc(F)c5)nc(N)n4n3)CC[C@@H]2C)cn1` [Example 2.16, 2-((3R,6S)-1-(1-ethyl-1H-pyrazol-4-yl)-6-methylpiperidin-3-yl)-7-(3-fluorophenyl)-8-methyl-[1,2,4]triazolo[1,5-c]pyrimidin-5-amine], the IC50 came to 8.8 nM in experiment [1] and 82.6 nM in experiment [2].

For `Cc1c(-c2ncco2)nc(N)n2nc([C@H]3CC[C@@H](C)N(c4cnn(CC(C)(C)O)c4)C3)nc12` [Example 2.13, 1-(4-((2R,5S)-5-(5-amino-8-methyl-7-(oxazol-2-yl)-[1,2,4]triazolo[1,5-c]pyrimidin-2-yl)-2-methylpiperidin-1-yl)-1H-pyrazol-1-yl)-2-methylpropan-2-ol], the values for the half-maximal inhibitory concentration (IC50) in experiment [1] and in experiment [2] were 47.9 nM and 1310 nM, respectively.

The record behind these values is US12466831B2, “Substituted amino triazolopyrimidine and amino triazolopyrazine adenosine receptor antagonists, pharmaceutical compositions and their use” (Merck Sharp & Dohme LLC, priority 2018, dated 2025).
